The IC50 is the point on the concentration scale where inhibition reaches its midpoint. A lower IC50 goes with greater potency. One may read the Ki as a dissociation constant, usually derived from enzyme kinetics or from competition with a known ligand.

Experimental findings from patent publication US9963432B2, “Beta-amino-isoquinolinyl amide compounds” (Aerie Pharmaceuticals, Inc., priority 2016, dated 2018) are described below.

Where two headings read alike, the source gives them in different places.

Assay [1] deals with Immortalized Human Trabecular Meshwork cells (TM-1). Description: PTM-HTM Assay: human trabecular meshwork cells, focal adhesions. The format is cell-based. The note with it: TM1, TM-1 cells, anti-paxillin stain, total area of focal adhesions, percent of control. On the procedure:
(§1) Porcine Trabecular Meshwork cells (PTM) were isolated from freshly obtained enucleated porcine eyes following a procedure by Rao et al.^1 Immortalized Human Trabecular Meshwork cells (TM-1) were obtained through a kind gift from Donna Peters in the Department of Ophthalmology and Visual Sciences at the University of Wisconsin. Cells were plated onto fibronectin coated glass-bottom 96-well plates and allowed to attach overnight. Media was removed and replaced with test compound in media with 1% fetal bovine serum and incubated for various times. After incubation, cells were formaldehyde fixed, triton solubilized, and stained. PTM cells were stained with Alexa Fluor®488 phalloidin (F-actin) and Hoechst 33342 (nuclei). TM-1 cells were stained with anti-paxillin followed by Alexa Fluor®488 goat-anti-mouse IgG (focal adhesions) and Hoechst 33342 (nuclei). All staining reagents were obtained through Invitrogen. Images were collected on an INCell 2200 imager with a 20× objective. The actin fiber length and total area of focal adhesions were analyzed using custom algorithms developed in the INCell Developer Toolbox, v1.9.3. Data collected were converted to percent of control (untreated cells). Curves were fit to data in GraphPad Prizm4 using sigmoidal dose-response and constraining top and bottom to 100% and 0%, respectively.

The subject of assay [2] is Porcine Trabecular Meshwork cells (PTM). Description: PTM-HTM Assay: porcine trabecular meshwork cells, actin fibers. The conditions noted are these: Sus scrofa, phalloidin stain, actin fiber length, percent of control. Format: cell-based. On the procedure: as §1
For another assay, the target named is ROCK2 (Homo sapiens, UniProt O75116). Description: ROCK Kinase Assay (Kinase-Glo luminescent). Format: biochemical. On the procedure:
All compounds were initially prepared as 10 mM stocks in anhydrous dimethylsulfoxide (DMSO). […] Test compounds were then serially diluted 1:3 in DMSO for a 10-point concentration response and further diluted in the assay buffer bringing all compound concentrations to 4× final concentration in 10% DMSO. […] A 10 μL aliquot of compound from each well of the intermediate dilution plate and 10 μL of a 4× stock solution containing ATP (5 μM) and acceptor substrate (20 μM RSK2 peptide […]) were added to all wells. […] Reactions were thoroughly mixed manually, covered and allowed to incubate at room temperature for 180 min. Protein kinase activity was quantitated using Promega's Kinase-Glo™ luminescent Kinase Assay Kit according to the manufacturer's directions. ATP concentrations remaining in Test wells following the termination of the enzymatic reaction were compared against control wells containing equivalent amounts of DMSO containing no inhibitor (CTRL). […] Percent of Control (POC) values were determined for each concentration of compound tested according to the equation: POC=((Test well value−BKG)/(CTRL−BKG))*100
IC50 values were calculated using the following 4-parameter logistic curve-fitting algorithm: f(x)=(A+((B−A)/(1+((x/C)^D))))
IC50 values were converted to Ki values using the Cheng-Prusoff Equation: Ki=IC50/(1+([ATP]/Km ATP])).
In general terms: In Kinase-Glo more light means more ATP remaining.

Where [3] appears, read: IC50 converted to Ki by Cheng-Prusoff, ATP 5 μM, ROCK2 1 nM, 180 min, read-out: ROCK2 Ki.

Sequence of ROCK2 (O75116 whole entry, species assumed): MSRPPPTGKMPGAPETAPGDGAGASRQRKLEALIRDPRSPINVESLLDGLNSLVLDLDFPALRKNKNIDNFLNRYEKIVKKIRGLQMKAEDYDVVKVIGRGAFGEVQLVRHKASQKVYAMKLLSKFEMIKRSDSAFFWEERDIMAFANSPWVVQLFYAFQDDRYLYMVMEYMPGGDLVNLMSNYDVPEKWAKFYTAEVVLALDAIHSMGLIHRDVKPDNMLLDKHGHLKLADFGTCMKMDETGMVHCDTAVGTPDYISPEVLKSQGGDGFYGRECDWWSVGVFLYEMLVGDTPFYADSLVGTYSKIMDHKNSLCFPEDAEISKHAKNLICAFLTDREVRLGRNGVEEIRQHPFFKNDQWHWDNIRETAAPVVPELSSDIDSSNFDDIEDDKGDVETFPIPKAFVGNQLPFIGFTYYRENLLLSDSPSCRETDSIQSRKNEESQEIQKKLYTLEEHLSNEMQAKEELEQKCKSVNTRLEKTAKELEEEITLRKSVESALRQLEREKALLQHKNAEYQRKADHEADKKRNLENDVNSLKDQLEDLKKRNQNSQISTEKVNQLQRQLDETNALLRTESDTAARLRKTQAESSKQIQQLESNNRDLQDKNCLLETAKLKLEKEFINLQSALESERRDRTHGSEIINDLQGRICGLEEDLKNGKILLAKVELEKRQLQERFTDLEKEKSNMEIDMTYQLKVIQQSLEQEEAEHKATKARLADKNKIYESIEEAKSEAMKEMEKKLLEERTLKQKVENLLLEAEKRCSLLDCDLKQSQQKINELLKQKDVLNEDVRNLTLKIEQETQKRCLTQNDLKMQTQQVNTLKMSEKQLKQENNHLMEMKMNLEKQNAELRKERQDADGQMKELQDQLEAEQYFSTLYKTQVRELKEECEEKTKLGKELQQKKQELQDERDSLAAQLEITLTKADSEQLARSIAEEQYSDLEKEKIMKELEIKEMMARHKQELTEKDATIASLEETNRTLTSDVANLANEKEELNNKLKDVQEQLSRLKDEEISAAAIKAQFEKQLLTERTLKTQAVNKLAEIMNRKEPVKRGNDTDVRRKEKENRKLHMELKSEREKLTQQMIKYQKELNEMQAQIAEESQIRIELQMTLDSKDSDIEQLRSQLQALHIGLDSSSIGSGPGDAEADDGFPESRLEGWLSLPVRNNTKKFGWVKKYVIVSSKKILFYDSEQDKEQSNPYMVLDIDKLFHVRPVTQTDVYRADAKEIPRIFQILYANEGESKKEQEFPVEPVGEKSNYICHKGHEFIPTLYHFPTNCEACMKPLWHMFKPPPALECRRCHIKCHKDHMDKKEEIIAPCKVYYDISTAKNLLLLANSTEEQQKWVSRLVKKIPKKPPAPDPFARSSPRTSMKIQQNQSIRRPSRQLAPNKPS

Consider `NCC(C(=O)Nc1ccc2cnccc2c1)c1cccc(C(F)(F)F)c1` (centres unmarked) [Compound 21], for which the IC50 is 475 nM in assay [1] and 596 nM in assay [2]. Further, the inhibition constant (Ki) at ROCK2 (setting [3]) was determined as 2.7 nM.

On to `NCC(C(=O)Nc1ccc2cnccc2c1)c1ccc(Cl)cc1` (centres unmarked) [Compound 11], for which the IC50 came to 64 nM in assay [1] and 129 nM in assay [2]. Besides, the Ki on ROCK2 (setting [3]) is 0.4 nM.

With `NCC(C(=O)Nc1ccc2cnccc2c1)c1cccc(Cl)c1` (centres unmarked) [Compound 10], the results for the IC50 in assay [1] and in assay [2] were 383 nM and 455 nM, respectively. Besides, at ROCK2 (setting [3]), the inhibition constant Ki is 0.9 nM.

Turning to `NCC(C(=O)Nc1ccc2cnccc2c1)c1cccc(F)c1` (centres unmarked) [Compound 7], the IC50 in assay [1] came to 201 nM; in assay [2] it was 298 nM. Moreover, the Ki at ROCK2 (setting [3]) stood at 1 nM.

For `Cc1ccc(C(CN)C(=O)Nc2ccc3cnccc3c2)cc1` (centres unmarked) [Compound 15], the concentration for half-maximal inhibition (IC50) in assay [1] stood at 39 nM; in assay [2] it was 84 nM. Besides, the inhibition constant Ki at ROCK2 (setting [3]) was 0.4 nM.

Regarding `NCC(C(=O)Nc1ccc2cnccc2c1)c1cccc(O)c1` (centres unmarked) [Compound 16], the half-inhibitory concentration (IC50) was found to be 1720 nM in assay [1] and 459 nM in assay [2]. Moreover, the Ki on ROCK2 (setting [3]) worked out at 1.3 nM.

With `NCC(C(=O)Nc1ccc2cnccc2c1)c1cccc(CO)c1` (centres unmarked) [Compound 23], the figures for the IC50 in assay [1] and in assay [2] were 248 nM and 1380 nM, respectively. Also, at ROCK2 (setting [3]), the inhibition constant (Ki) turned out to be 3 nM.

In the case of `NCC(C(=O)Nc1ccc2cnccc2c1)c1ccc(O)cc1` (centres unmarked) [Compound 17], the IC50 is 193 nM in assay [1] and 1020 nM in assay [2]. Further, the Ki at ROCK2 (setting [3]) is 0.6 nM.

For the molecule `NCC(C(=O)Nc1ccc2cnccc2c1)c1ccccc1` (centres unmarked) [Compound 2], the inhibition constant (Ki) on ROCK2 (setting [3]) was 0.8 nM.

With `Cc1ccccc1C(CN)C(=O)Nc1ccc2cnccc2c1` (centres unmarked) [Compound 13], the values for the IC50 in assay [1] and in assay [2] were 90 nM and 200 nM, respectively. For the same molecule, the inhibitory constant (Ki) at ROCK2 (setting [3]) worked out at 1 nM.

For `NCC(C(=O)Nc1ccc2c(O)nccc2c1)c1ccccc1` (centres unmarked) [Compound 5], the IC50 in assay [1] was 266 nM; in assay [2], 45 nM. Further, the Ki on ROCK2 (setting [3]) was 2.2 nM.

Turning to `NCC(C(=O)Nc1ccc2cnccc2c1)c1ccc(CO)cc1` (centres unmarked) [Compound 24], at ROCK2, the affinity, expressed as Ki, was 0.7 nM.

Consider `NCC(C(=O)Nc1ccc2cnccc2c1)c1ccc(O)c(O)c1` (centres unmarked) [Compound 18], for which the IC50 in assay [1] amounted to 11000 nM; in assay [2] it was 5150 nM. In addition, the Ki on ROCK2 (setting [3]) came out at 5.5 nM.

With `NC[C@@H](C(=O)Nc1ccc2cnccc2c1)c1ccccc1` [3 (S)], in assay [1], the half-inhibitory concentration (IC50) stood at 41 nM. Also, at ROCK2 (setting [3]), the Ki came out at 0.4 nM.

As for `NCC(C(=O)Nc1ccc2cnccc2c1)c1ccc(Cl)cc1Cl` (centres unmarked) [Compound 12], the IC50 was found to be 208 nM in assay [1] and 214 nM in assay [2]. For the same molecule, at ROCK2 (setting [3]), the Ki came to 0.8 nM.

For `Cc1cccc(C(CN)C(=O)Nc2ccc3cnccc3c2)c1` (centres unmarked) [Compound 14], the IC50 in assay [1] turned out to be 324 nM; in assay [2] it was 511 nM. For the same molecule, on ROCK2 (setting [3]), the Ki is 3.3 nM.

For the molecule `NCC(C(=O)Nc1ccc2cnccc2c1)c1ccc(F)cc1` (centres unmarked) [Compound 8], the concentration for half-maximal inhibition (IC50) in assay [1] came out at 102 nM; in assay [2], 175 nM. Moreover, the Ki on ROCK2 (setting [3]) came to 1 nM.

On to `NCC(C(=O)Nc1ccc2cnccc2c1)c1ccc(C(F)(F)F)cc1` (centres unmarked) [Compound 22], for which the figures for the IC50 in assay [1] and in assay [2] were 493 nM and 152 nM, respectively. On ROCK2 (setting [3]), the Ki was 1.8 nM.

`COc1cccc(C(CN)C(=O)Nc2ccc3cnccc3c2)c1` (centres unmarked) [Compound 19]: the IC50 in assay [1] is 214 nM; in assay [2] it was 448 nM. Besides, at ROCK2 (setting [3]), the inhibition constant (Ki) came to 2 nM.

On to `NC[C@H](C(=O)Nc1ccc2cnccc2c1)c1ccccc1` [4 (R)], for which, at ROCK2 (setting [3]), the Ki was 16 nM.

For the molecule `COc1ccc(C(CN)C(=O)Nc2ccc3cnccc3c2)cc1` (centres unmarked) [Compound 20], the IC50 in assay [1] worked out at 111 nM; in assay [2], 670 nM. Also, the Ki on ROCK2 (setting [3]) is 1.3 nM.

As for `NCC(C(=O)Nc1ccc2cnccc2c1)c1ccccc1F` (centres unmarked) [Compound 6], the IC50 is 139 nM in assay [1] and 260 nM in assay [2]. For the same molecule, the Ki at ROCK2 (setting [3]) worked out at 1 nM.

Consider `NCC(C(=O)Nc1ccc2cnccc2c1)c1ccccc1Cl` (centres unmarked) [Compound 9], for which the IC50 stood at 192 nM in assay [1] and 245 nM in assay [2]. Also, on ROCK2 (setting [3]), the inhibition constant (Ki) amounted to 1.3 nM.
